{"source": "the NIST ThermoML archive (doi:10.1021/je200868y)", "settings": "Liquid; for mass density: 298.15 K, 101.33 kPa, Vibrating tube method", "note": "± gives the expanded uncertainty stated by the source."}
{"smiles": "CCCCCC(=O)OCC", "note": "[ethyl hexanoate]", "values": [{"measurement": "mass density", "value": "865.59 ± 0.11", "unit": "kg/m3"}, {"measurement": "vapor or sublimation pressure", "setting": "408.31 K", "value": "40 ± 1.5", "unit": "kPa"}, {"measurement": "vapor or sublimation pressure", "setting": "417.74 K", "value": "53.33 ± 2", "unit": "kPa"}, {"measurement": "vapor or sublimation pressure", "setting": "425.39 K", "value": "66.66 ± 2.4", "unit": "kPa"}, {"measurement": "vapor or sublimation pressure", "setting": "431.86 K", "value": "79.99 ± 2.8", "unit": "kPa"}, {"measurement": "vapor or sublimation pressure", "setting": "437.53 K", "value": "93.32 ± 3.2", "unit": "kPa"}, {"measurement": "vapor or sublimation pressure", "setting": "440.57 K", "value": "101.3 ± 3.4", "unit": "kPa"}]}
{"smiles": "CCO", "note": "[ethanol]", "values": [{"measurement": "mass density", "value": "785.18 ± 0.15", "unit": "kg/m3"}, {"measurement": "vapor or sublimation pressure", "setting": "329.69 K", "value": "40 ± 1.5", "unit": "kPa"}, {"measurement": "vapor or sublimation pressure", "setting": "336.07 K", "value": "53.33 ± 2", "unit": "kPa"}, {"measurement": "vapor or sublimation pressure", "setting": "341.23 K", "value": "66.66 ± 2.4", "unit": "kPa"}, {"measurement": "vapor or sublimation pressure", "setting": "345.6 K", "value": "79.99 ± 2.8", "unit": "kPa"}, {"measurement": "vapor or sublimation pressure", "setting": "349.39 K", "value": "93.32 ± 3.2", "unit": "kPa"}, {"measurement": "vapor or sublimation pressure", "setting": "351.44 K", "value": "101.3 ± 3.4", "unit": "kPa"}]}
{"smiles": "Cc1ccc(C)cc1", "note": "[1,4-dimethylbenzene]", "values": [{"measurement": "mass density", "value": "856.68 ± 0.12", "unit": "kg/m3"}, {"measurement": "vapor or sublimation pressure", "setting": "379.81 K", "value": "40 ± 1.5", "unit": "kPa"}, {"measurement": "vapor or sublimation pressure", "setting": "388.96 K", "value": "53.33 ± 2", "unit": "kPa"}, {"measurement": "vapor or sublimation pressure", "setting": "396.45 K", "value": "66.66 ± 2.4", "unit": "kPa"}, {"measurement": "vapor or sublimation pressure", "setting": "402.82 K", "value": "79.99 ± 2.8", "unit": "kPa"}, {"measurement": "vapor or sublimation pressure", "setting": "408.4 K", "value": "93.32 ± 3.2", "unit": "kPa"}, {"measurement": "vapor or sublimation pressure", "setting": "411.48 K", "value": "101.3 ± 3.4", "unit": "kPa"}]}
